Like-named read-outs stand apart in the source and are kept apart here.
How the values were obtained:
DLD-1 BRCA2(−/−) cells = test: Cell growth inhibition assay (CellTiter-Glo cell viability, 7 days); assay type: cell-based; details: Homo sapiens, 168 h
Text: (§1) The objective of this study is to evaluate the effect of invention compounds on cell proliferation through the cell viability assay in DLD-1 BRCA2(−/−) and parental isogenic pair and MDA-MB-436 (mutated BRCA1) cell lines. The CellTiter-Glo (CTG) based cell viability assay is designed to determine the number of viable cells in the culture because of compound effect, by quantifying ATP, which indicates the presence of metabolically active cells.
(§2) DLD-1 BRCA2(−/−) and parental isogenic pair were cultured in RPMI 1640 supplemented with 10% fetal bovine serum (FBS), and MDA-MB-436 cells were cultured in DMEM supplemented with 10% FBS. Both are culture at 37° C. with 5% CO2. Invention compounds were distributed to the 384 well plate (Corning, 3764) using Echo acoustic liquid handler to form a 1:3 serially diluted final concentration with top dose of 10 or 30 μM. The cells were seeded into the plate in the density of 50 cells/well (DLD-1 parental), 200 cells/well (DLD-1 BRCA2−/−), or 500 cells/well (MDA-MB-436). After a short spun, the cells were cultured in a well moisturized incubator at 37° C. with 5% CO2 for 7 days without disturbance. The cell viability was measured by CellTiter Glo 2.0 assay kit (Promega, G9243), and growth inhibition rate was calculated and plotted against final compound concentration, and the data were fitted in Xfit to generate IC50.

[1] = test system: MDA-MB-436 (mutated BRCA1) cells; test: as above; assay type: cell-based; details: Homo sapiens, 168 h, MDA-MB-436, 7 days
Text: as §1, §2

PARP1 = PARP1 (Homo sapiens (Human), UniProt P09874); test: Biochemical fluorescent polarization (FP) assay, displacement of PARPi-FL; assay type: binding; details: 20 nM protein, 3 nM PARPi-FL, 4 h at room temperature
Sequence of PARP1 (P09874 whole entry): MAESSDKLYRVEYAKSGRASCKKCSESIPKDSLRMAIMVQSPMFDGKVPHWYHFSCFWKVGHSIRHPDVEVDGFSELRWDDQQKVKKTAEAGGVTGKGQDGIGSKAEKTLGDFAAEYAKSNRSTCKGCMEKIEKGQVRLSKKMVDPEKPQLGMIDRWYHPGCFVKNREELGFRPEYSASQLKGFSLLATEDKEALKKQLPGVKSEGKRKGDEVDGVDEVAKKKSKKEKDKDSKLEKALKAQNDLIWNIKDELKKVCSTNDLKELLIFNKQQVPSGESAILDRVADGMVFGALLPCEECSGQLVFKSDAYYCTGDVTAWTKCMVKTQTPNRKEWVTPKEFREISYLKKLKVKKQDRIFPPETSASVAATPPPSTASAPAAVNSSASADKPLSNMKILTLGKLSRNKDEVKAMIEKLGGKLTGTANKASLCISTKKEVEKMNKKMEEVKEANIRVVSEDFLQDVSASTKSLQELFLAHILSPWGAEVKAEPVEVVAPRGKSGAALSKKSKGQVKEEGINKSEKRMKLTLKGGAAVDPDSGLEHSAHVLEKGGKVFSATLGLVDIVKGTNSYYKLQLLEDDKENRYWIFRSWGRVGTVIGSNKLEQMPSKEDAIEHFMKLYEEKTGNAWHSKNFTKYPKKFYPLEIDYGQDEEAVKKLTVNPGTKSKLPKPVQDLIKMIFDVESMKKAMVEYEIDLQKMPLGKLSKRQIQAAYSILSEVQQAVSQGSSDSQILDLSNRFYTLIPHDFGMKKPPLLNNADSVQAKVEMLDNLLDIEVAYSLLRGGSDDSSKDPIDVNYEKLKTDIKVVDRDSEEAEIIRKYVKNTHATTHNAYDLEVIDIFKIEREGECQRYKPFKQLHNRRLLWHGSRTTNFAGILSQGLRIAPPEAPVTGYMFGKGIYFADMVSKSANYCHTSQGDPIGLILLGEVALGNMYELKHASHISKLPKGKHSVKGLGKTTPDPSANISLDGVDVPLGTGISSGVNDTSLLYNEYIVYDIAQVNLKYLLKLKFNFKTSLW
Experimental: (§3) The assay was performed utilizing the following method:
(§4) 100% DMSO was used for the high (with protein) and low (without protein) control samples. 20 nL of compound or DMSO alone was added to individual assay plate wells.
(§5) PARP1 and PARP2 protein were expressed, purified, and diluted in assay buffer containing 50 mM Tris pH 8.0, 0.001% Triton X-100, 10 mM MgCl2, 150 mM NaCl to a final concentration of 20 nM. The PARPi-FL was then added at a final concentration of 3 nM.
(§6) The assay plate is centrifuged at 1000 rpm for 1 min and incubated for 4 h at room temperature.
(§7) The fluorescent polarization is read using an Envision plate reader using the following settings: […]

PARP2 = PARP2 (Homo sapiens (Human), UniProt Q9UGN5); test: as above; assay type: binding
Sequence of PARP2 (Q9UGN5 whole entry): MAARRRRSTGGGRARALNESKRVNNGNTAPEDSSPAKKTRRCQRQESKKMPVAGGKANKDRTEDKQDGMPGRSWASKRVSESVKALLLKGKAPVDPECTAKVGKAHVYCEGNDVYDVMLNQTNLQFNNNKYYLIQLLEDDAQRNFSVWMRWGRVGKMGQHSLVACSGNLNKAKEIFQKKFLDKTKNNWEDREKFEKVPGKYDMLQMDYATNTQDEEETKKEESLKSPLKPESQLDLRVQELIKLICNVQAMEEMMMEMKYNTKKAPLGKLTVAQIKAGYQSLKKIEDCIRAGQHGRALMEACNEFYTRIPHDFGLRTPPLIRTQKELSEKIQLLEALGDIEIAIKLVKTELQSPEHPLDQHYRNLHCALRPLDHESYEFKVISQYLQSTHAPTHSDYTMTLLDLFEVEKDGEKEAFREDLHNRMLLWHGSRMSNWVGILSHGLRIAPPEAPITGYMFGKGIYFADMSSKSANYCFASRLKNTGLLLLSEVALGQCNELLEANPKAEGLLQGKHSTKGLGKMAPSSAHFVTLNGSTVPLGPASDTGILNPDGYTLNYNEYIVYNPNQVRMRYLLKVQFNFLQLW
Experimental: as §3, §4, §5, §6, §7

[2] = 20 nM protein, 3 nM PARPi-FL, 4 h at room temperature, read-out: IC50 FP PARP2

SMILES	EC50 (DLD-1 BRCA2(−/−) cells) [nM]	EC50 [1] [nM]	IC50 (PARP1) [nM]	IC50 (PARP2; [2]) [nM]	IC50 (PARP2) [nM]
CCc1cc2ncc(CN3C[C@H](Oc4ccc(F)cc4)[C@H]3C)cc2[nH]c1=O [Example 51]	4.4	7.9	4.1	4200	–
CCc1cc2ncc([C@@H](C)N3C[C@H](Oc4ccc(C(=O)NC)nc4)[C@H]3C)cc2[nH]c1=O (single isomer, unassigned) [Example 54, 5-{[(2R,3S)-1-[(1R*)-1-(7-ethyl-6-oxo-5H-1,5-naphthyridin-3-yl)ethyl]-2-methylazetidin-3-yl]oxy}-N-methylpyridine-2-carboxamide]	1.2	0.62	4.5	900	–
C[C@@H]1[C@@H](Oc2ccc(C(=O)NC3CC3)nc2)CN1Cc1cnc2cc(Cl)c(=O)[nH]c2c1 [Example 76, 5-{[(2R,3S)-1-[(7-chloro-6-oxo-5H-1,5-naphthyridin-3-yl)methyl]-2-methylazetidin-3-yl]oxy}-N-cyclopropylpyridine-2-carboxamide]	1.4	1.1	2.8	8700	–
CCc1nc2cc(F)c(CN3CC[C@@H](Oc4ccc(C(=O)NC)nc4)C3)cc2[nH]c1=O [Example 32]	6.4	16	6.8	> 100000	–
CCc1cn2nc(CN3C[C@H](Oc4ccc(C(=O)NC)nc4)[C@H]3C)cc2[nH]c1=O [Example 46]	90	100	9.9	> 100000	–
C[C@@H]1[C@@H](Oc2ccc(C(=O)NC3CC3)nc2)CN1Cc1cnc2c(c1)[nH]c(=O)c1ccoc12 [Example 84]	3	1.4	8.8	48000	–
[2H]C([2H])([2H])NC(=O)c1ccc(O[C@H]2CN(Cc3cnc4cc(CC)c(=O)[nH]c4c3)[C@@H]2C)cn1 [Example 39]	1.3	1.1	4.3	–	5900
CCc1cc2ncc(CN3C[C@H](Oc4ccc(C#N)nc4)[C@H]3C)cc2[nH]c1=O [Example 36]	12	3.7	5	15000	–
CCc1nc2cc(F)c(CN3C[C@H](Oc4ccc(C(=O)NC)nc4)[C@H]3C)cc2[nH]c1=O [Example 59]	9.8	4.7	5.5	> 100000	–
Cc1cc2ncc(CN3C[C@H](Oc4ccc(F)nc4)[C@H]3C)cc2[nH]c1=O [Example 62]	86	140	18	52000	–
CNC(=O)c1ccc(O[C@H]2CN(Cc3ccc4nc(C)c(=O)[nH]c4c3F)[C@@H]2C)cn1 [Example 91]	23	27	11	> 100000	–
Cc1cc2ncc(CN3C[C@H](Oc4ccc(C(=O)NC5(C)CC5)nc4)[C@H]3C)cc2[nH]c1=O [Example 74]	3.9	2.6	8.9	25000	–
CCc1cc2ncc(CN3C[C@H](n4ccc5nc(C(=O)NC)ccc54)[C@H]3C)cc2[nH]c1=O [Example 63, 1-[(2R,3S)-1-[(7-ethyl-6-oxo-5H-1,5-naphthyridin-3-yl)methyl]-2-methylazetidin-3-yl]-N-methylpyrrolo[3,2-b]pyridine-5-carboxamide]	4.8	3.6	6.6	9600	–
Cc1cc2ncc([C@H](C)N3C[C@H](Oc4ccc(C#N)nc4)[C@H]3C)cc2[nH]c1=O (single isomer, unassigned) [Example 61]	10	8.8	18	23000	–
CNC(=O)c1ccc(O[C@@H]2CCN(Cc3cnc4c(c3)[nH]c(=O)c3ccoc34)C2)cn1 [Example 35]	9.9	32	3.6	> 100000	–
CNC(=O)c1ncc(O[C@H]2CN(Cc3cnc4cc(C)c(=O)[nH]c4c3)[C@@H]2C)cc1F [Example 52]	12	9.8	6.3	76000	–
CCc1cc2ncc(CN3C[C@H](Oc4ccc(C#N)cn4)[C@H]3C)cc2[nH]c1=O [Example 34]	150	84	13	12000	–

SMILES	EC50 (DLD-1 BRCA2(−/−) cells) [nM]	EC50 [1] [nM]	IC50 (PARP1) [nM]	IC50 (PARP2; [2]) [nM]	IC50 (PARP2) [nM]
CNC(=O)c1ccc(O[C@H]2CN(Cc3cnc4cc(C)c(=O)[nH]c4c3)[C@@H]2C)cn1 [Example 50]	5.3	8.7	11	83000	–
CCc1cc2ncc(CN3C[C@H](Oc4ccc(C(=O)NC5CC5)nc4)[C@H]3C)cc2[nH]c1=O [Example 43, N-cyclopropyl-5-{[(2R,3S)-1-[(7-ethyl-6-oxo-5H-1,5-naphthyridin-3-yl)methyl]-2-methylazetidin-3-yl]oxy}pyridine-2-carboxamide]	1.1	0.46	6.6	2900	–
CNC(=O)c1ncc(O[C@@H]2CCN(Cc3cnc4cc(C5CC5)c(=O)[nH]c4c3)C2)cc1F [Example 25]	36	41	11	25000	–
CCc1cc2ncc(CN3C[C@H](Oc4ccc(C(=O)NC)nc4)[C@H]3C)cc2[nH]c1=O [Example 17, 5-{[(2R,3S)-1-[(7-ethyl-6-oxo-5H-1,5-naphthyridin-3-yl)methyl]-2-methylazetidin-3-yl]oxy}-N-methylpyridine-2-carboxamide]	1.2	0.79	7.3	21000	–
CCc1nc2ccc(CN3C[C@H](Oc4ccc(C(=O)NC5CC5)nc4F)[C@H]3C)c(F)c2[nH]c1=O [Example 101]	5.4	3.1	–	–	–
[2H]C([2H])(c1cnc2cc(CC)c(=O)[nH]c2c1)N1C[C@H](Oc2ccc(C(=O)NC3CC3)nc2)[C@H]1C [Example 71]	0.89	0.49	–	–	–
Cc1cc2c(=O)[nH]c3c(F)c(CN4C[C@H](Oc5ccc(C(=O)NC6CC6)nc5)[C@H]4C)ccc3n2n1 [Example 114]	5.9	3.6	–	–	–
CCc1cc2ncc(CN3C[C@@H](F)[C@@H](Oc4ccc(C(=O)NC)nc4)C3)cc2[nH]c1=O [Example 9, 5-(((3S,4R)-1-((7-ethyl-6-oxo-5,6-dihydro-1,5-naphthyridin-3-yl)methyl)-4-fluoropyrrolidin-3-yl)oxy)-N-methylpicolinamide]	72	25	–	–	–
CNC(=O)c1ccc(O[C@H]2CN(Cc3ccc4c5c(c(=O)[nH]c4c3F)CCO5)[C@@H]2C)cn1 [Example 115, 5-{[(2R,3S)-1-({6-fluoro-4-oxo-2H,3H,5H-furo[3,2-c]quinolin-7-yl}methyl)-2-methylazetidin-3-yl]oxy}-N-methylpyridine-2-carboxamide]	170	170	–	–	–
CCc1cc2ncc(CN3C[C@@H](Oc4ccc(C(=O)NC)nc4)[C@@H]3C)cc2[nH]c1=O [Example 18, 5-{[(2S,3R)-1-[(7-ethyl-6-oxo-5H-1,5-naphthyridin-3-yl)methyl]-2-methylazetidin-3-yl]oxy}-N-methylpyridine-2-carboxamide]	> 1000	> 1000	–	–	–
CCc1cc2ncc(CN3C[C@H](Oc4ccc(C(=O)NC)nc4)[C@@H](F)C3)cc2[nH]c1=O [Example 6, 5-(((3S,4S)-1-((7-ethyl-6-oxo-5,6-dihydro-1,5-naphthyridin-3-yl)methyl)-4-fluoropyrrolidin-3-yl)oxy)-N-methylpicolinamide]	73	42	–	–	–
CNC(=O)c1ccc2c(ccn2[C@H]2CN(Cc3ccc4[nH]c(=O)c(C5CC5)cc4n3)[C@@H]2C)n1 [Example 87]	20	12	–	–	–
Cc1cc2ncc(CN3C[C@H](Oc4ccc(C(=O)NC5CCC5)nc4)[C@H]3C)cc2[nH]c1=O [Example 85]	1.8	1.3	–	–	–
CCc1cc2ncc(CN3C[C@H](n4ccc5nc(C#N)ccc54)[C@H]3C)cc2[nH]c1=O [Example 83]	22	11	–	–	–
C[C@@H]1[C@@H](Oc2ccc(C(=O)NC3CC3)nc2F)CN1Cc1cnc2cc(Cl)c(=O)[nH]c2c1 [Example 105]	2.2	0.93	–	–	–
CNC(=O)c1ccc2c(ccn2[C@H]2CN(Cc3ccc4nc(C)c(=O)[nH]c4c3F)[C@@H]2C)n1 [Example 96]	> 1000	> 1000	–	–	–
